For data set [1], the system named is TZM-bl cells. Nature of the data set: Cellular viability assay (alamarBlue) in TZM-bl cells. An excerpt:
In an embodiment, the cellular cytotoxicity of 17 spiro-β-lactams was investigated in TZM-bl cells using the AlamarBlue assay as recommended by the manufacturer (Invitrogen, USA). TZM-bl, previously designated JC53-bl (clone 13) is a HeLa cell line. The parental cell line (JC.53) stably expresses large amounts of CD4, CCR5 and CXCR4. The TZM-bl cell line was generated from JC.53 cells by introducing separate integrated copies of the luciferase and […] genes under control of the HIV-1 promoter. The TZM-bl cell line is highly sensitive to infection with diverse isolates of HIV.
In an embodiment, the cellular viability assay was carried out as follows: the potential in vitro cytotoxicity of all BSS compounds was evaluated in TZM-bl cells. TZM-bl cells (10000 cells/well in 96-well plates) were incubated in absence or presence of serial-two-fold dilutions of the compounds in growth medium (GM), with starting concentration of 100 μg/ml and a final concentration of 0.781 μg/ml. After 48 hours, cell viability was examined with alamarBlue reagent (Invitrogen, USA) according to manufacturer's instructions. Briefly, 10 μl of alamarBlue reagent was added to each well. After 4 hours at 37° C., the fluorescence was measured in Tecan Infinite M200 (excitation wavelength 550 nm and emission wavelength 600 nm).
In an embodiment, at least two independent experiments have been performed for each cytotoxicity analysis.
In an embodiment, for each assay there were medium controls (only growth medium), cell controls (cells without test compound) and cytotoxicity controls (a compound that kill cells—SDS).
(The colour change of resazurin is a common sign of viable cells or microbes.)

The subject of data set [2] is HIV-2. As for the experimental part: (§1) In an embodiment, TZM-bl cells (AIDS Research and Reference Reagent Program, National Institutes of Health, USA) were cultured in complete growth medium that consists of Dulbecco's minimal essential medium (DMEM) supplemented with 10% fetal bovine serum (FBS), 100 U/ml of penicillin-streptomycin (Gibco/Invitrogen, USA), 1 mM of sodium pyruvate (Gibco/Invitrogen, USA), 2 mM of L-glutamine (Gibco/Invitrogen, USA) and 1 mM of non-essential amino acids (Gibco/Invitrogen, USA).
(§2) In an embodiment, the primary isolates 93AOHDC249, 93AOHDC250, 01PTHDECJN and 03PTHCC9, used in this study were previously isolated, titrated and characterized for co-receptor usage. HIV reference strain SG3.1 was obtained by transfection of HEK293T cells with pSG3.1 (HIV-1) plasmid using Fugene 6 reagent (Roche, Switzerland) according to manufacturer's instructions.
(§3) In an embodiment, the 50% tissue culture infectious dose (TCID50) of the virus was determined in a single-round viral infectivity assay using a luciferase reporter gene assay in TZM-bl cells and calculated using the statistical method of Reed and Muench^27.
(§4) In an embodiment, the antiviral activity of the compounds was determined in a single-round assay with TZM-bl cells as previously described ^26. Cells were infected with 200 TCID50 of virus in the presence of serial fold dilutions of the BSS compounds in GM, supplemented with DEAE-dextran (19.7 μg/ml). After 48 h of infection, luciferase expression was quantified with the One-Glow luciferase assay substrate reagent (Promega, USA) according to manufacturer's instructions. Briefly, a volume of reagent equal to that of the culture medium in each well was added. For 96-well plates, typically 100 μl of reagent is added to the cells grown in 100 μl of medium. After an incubation of 3 minutes at room temperature to allow complete cell lysis luminescence was measured in Tecan Infinite M200. Background luminescence was measured by using control wells that contained only target cells and GM. Maraviroc (CCR5 antagonist), T1249 (fusion inhibitor) and AMD3100 (CXCR4 antagonist) were used as positive controls of the antiviral activity. At least two independent experiments were performed for each analysis and each assay was set up in triplicate wells.
(§5) In an embodiment, dose-response curves were estimated from the percentage of inhibition of infection (y-axis) against logo of concentration of each compound (x-axis) using the sigmoidal dose-response equation (variable slope) in GraphPad Prism version 5.00 for Windows (GraphPad Software, San Diego Calif. USA, www.graphpad.com). IC50 and IC90 values were determined from this curve. IC50 and IC90 values correspond to the concentration of compound that inhibits viral replication in 50% and 90%, respectively.

Data set [3] has as its system HIV-1. The settings on record: for IC50 / IC90: TZM-bl cells. On the procedure: as §1, §2, §3, §4, §5
For data set [4], the system named is P. berghei liver stages. Nature of the data set: In vitro activity against the liver stage of Plasmodium infection (luciferase assay in Huh7 cells). In kind it is cell-based, Plasmodium berghei. The conditions noted are these: P. berghei liver stages in Huh7 cells. On the procedure: FIG. 6: Compound activity against P. berghei liver stages. Anti-Plasmodial activity (infection axis, bars) and toxicity to hepatoma cells (cell confluency axis, circles) are shown. Infection loads of Huh7 cells, a human hepatoma cell line, were determined by bioluminescence measurements of cell lysates 48 h after infection with luciferase-expressing P. berghei parasites. Luciferase assay in 96 well-plate; 10 000 Huh7 cells/well+10 000 PbA-LuciGFPcon spz/well.
In an embodiment, the in vitro activity against the liver stage of Plasmodium infection was also carried out: inhibition of liver stage Plasmodium infection by test compounds was determined by measuring the luminescence intensity in Huh-7 cells infected with a firefly luciferase-expressing P. berghei line, as previously described. Briefly, Huh-7 cells, a human hepatoma cell line, were cultured in 1640 RPMI medium supplemented with 10% v/v fetal bovine serum, 1% v/v nonessential amino acids, 1% v/v penicillin/streptomycin, 1% v/v glutamine, and 10 mM 4-(2-hydroxyethyl)-1-piperazineethanesulfonic acid (HEPES), pH 7, and maintained at 37° C. with 5% CO2. For infection assays, Huh-7 cells (1.0×10^4 per well) were seeded in 96-well plates the day before drug treatment and infection. The medium was replaced by medium containing the appropriate concentration of each compound approximately 1 h prior to infection with sporozoites freshly obtained through disruption of salivary glands of infected female Anopheles stephensi mosquitoes. Sporozoite addition was followed by centrifugation at 1700×g for 5 min. Parasite infection load was measured 48 h after infection by a bioluminescence assay (Biotium). The effect of the compounds on the viability of Huh-7 cells was assessed by the AlamarBlue assay (Invitrogen, U.K.) using the manufacturer's protocol.

In data set [5] the test system is Lactobacillus rhamnosus. Nature of the data set: Anti-bacterial activity, agar diffusion method. In kind it is cell-based. The conditions noted are these: at the concentration of 1 mg/ml. On the procedure: (§6) In an embodiment, anti-bacterial activity of the compounds now disclosed was determined according to CLSI guidelines. The following bacteria were used: reference strains E. coli ATCC 10536, Staphylococcus aureus ATCC 6538, Bacillus subtilis ATCC 6633 and Enterococcus faecalis ATCC 29212; clinical strains of E. coli and Pseudomonas aeruginosa isolated in our laboratory; and strains of Lactobacillus rhamnosus and Lactobacillus plantarum also isolated in our laboratory. The Minimum Inhibitory Concentration (MIC) was determined by the agar diffusion method, in plates of Mueller-Hinton agar or Rogosa agar (for Lactobacilli). Briefly, 10^8 cfu/ml bacterial suspensions were prepared in sterile water and spread in the culture media. Sterile disks containing different concentrations of P3 were placed on the inoculated surface. Plates were incubated at 37° C. for 24 h or 48 h. Lactobacilli were incubated at microaerophilic conditions. A negative control made of sterile water was used. Disks of amoxicillin and imipenem were used as positive controls.

Data set [6] has as its system Pseudomonas aeruginosa (Clinical strain). Nature of the data set: Anti-bacterial activity, agar diffusion method. In kind it is cell-based. The conditions noted are these: at the concentration of 1 mg/ml. On the procedure: as §6
(In general: A growth-free zone around the sample is the usual read-out of agar diffusion tests.)

The subject of data set [7] is Escherichia coli (Clinical strain). Nature of the data set: Anti-bacterial activity, agar diffusion method. In kind it is cell-based. The conditions noted are these: at the concentration of 1 mg/ml. On the procedure:
as §6

The test system of data set [8] is Lactobacillus plantarum. Nature of the data set: Anti-bacterial activity, agar diffusion method. In kind it is cell-based. The settings on record: at the concentration of 1 mg/ml. On the procedure:
as §6

Data set [9] concerns Escherichia coli ATCC 10536. Nature of the data set: Anti-bacterial activity, agar diffusion method. In kind it is cell-based. The conditions noted are these: at the concentration of 1 mg/ml. As for the experimental part: as §6
Data set [10] has as its system Staphylococcus aureus ATCC 6538. Nature of the data set: Anti-bacterial activity, agar diffusion method. In kind it is cell-based. The conditions noted are these: at the concentration of 1 mg/ml. As for the experimental part: as §6
Data set [11] has as its system Enterococcus faecalis ATCC 29212. Nature of the data set: Anti-bacterial activity, agar diffusion method. The settings on record: at the concentration of 1 mg/ml. In kind it is cell-based. On the procedure:
as §6

Data set [12] has as its system Bacillus subtillis ATCC 6633. Nature of the data set: Anti-bacterial activity, agar diffusion method. In kind it is cell-based, Bacillus subtilis. The settings on record: at the concentration of 1 mg/ml. On the procedure: as §6
Where [13] appears, read: 03PTHCC19, CCR5 tropic HIV-2 isolate, TZM-bl cells, wa = without antiviral activity.
Setting [14] is: 93AOHDC249, CCR5 tropic HIV-1 primary isolate.
Setting [15] is: SG3.1, CXCR4 tropic HIV-1 adapted isolate.

Where two headings read alike, the source gives them in different places.

Molecule `CC(=O)C1C(C(=O)OCc2ccccc2)=CCC12C(=O)N1[C@@H](C(=O)OC(c3ccccc3)c3ccccc3)C(C)(C)S[C@@H]12` (some centres unmarked) [BSS-793B] returned a CC50 in data set [1] of 47.7 µM.

On to `CC(=O)C1C(C)C=C(C(=O)OCc2ccccc2)C12C(=O)N1[C@@H](C(=O)OC(c3ccccc3)c3ccccc3)C(C)(C)S[C@@H]12` (some centres unmarked) [BSS-794B], for which the CC50 in data set [1] was 49 µM.

The molecule `CC1(C)S[C@H]2N(C(=O)C23C(C(=O)c2ccccc2)N=NC3c2ccccc2)[C@H]1C(=O)OC(c1ccccc1)c1ccccc1` (some centres unmarked) [BSS-971S] yielded a CC50 in data set [1] of 82 µM.

Molecule `CC(C)(C)OC(=O)C1=NNC(c2ccccc2)C12C(=O)N1[C@@H](C(=O)OC(c3ccccc3)c3ccccc3)C(C)(C)S[C@@H]12` (some centres unmarked) [BSS-973C] showed a CC50 in [1] of 79.8 µM.

`COC(=O)C1C(C(=O)OCc2ccccc2)=CCC12C(=O)N1[C@@H](C(=O)OC(c3ccccc3)c3ccccc3)C(C)(C)S[C@@H]12` (some centres unmarked) [BSS-722A]: the “anti-HIV activity against HIV-2 (in words)” value in data set [2] was “potent activity”. Also, the “TI (in vitro therapeutic index, CC50/IC50)” value in data set [2] (03PTHCC19, CCR5 tropic HIV-2 isolate) was 105.29; in data set [3] (setting [14]) it was 161.80; in [3] (setting [15]), 82.64. Besides, the IC50 in data set [2] (setting [13]) worked out at 510 nM; in [3] (setting [14]), 332 nM; in [3] (setting [15]) it was 650 nM. The 90% effect concentration (IC90) in data set [2] (setting [13]) amounted to 1180 nM; in [3] (setting [14]), 701 nM; in data set [3] (setting [15]), 1090 nM. Further, the “MPI (maximum percentage of inhibition)” value in data set [2] (03PTHCC19, CCR5 tropic HIV-2 isolate, wa = without antiviral activity) turned out to be 90%; in data set [3] (setting [14]), 99%; in data set [3] (setting [15]) it was 97%. For the same molecule, in data set [3], the “anti-HIV activity against HIV-1 (in words)” value is “potent activity”. The “anti-Plasmodium activity (in words)” value in data set [4] is given as “presented activity”. Also, the CC50 in data set [1] amounted to 53.7 µM; in [1] (read-out: CC50 (cytotoxic concentration 50%), Table 1, TZM-bl cells, 48 hours, alamarBlue), 53.7 µM.

Consider `CC(=O)C1=NNC2(C1)C(=O)N1C(C(=O)O)C(C)(C)SC12` (centres unmarked) [BSS-591, Spiro[penicillanic-6,5′-(3-acetyl-2-pyrazoline)] acid], for which the inhibitory activity entry in data set [5], in data set [6], in data set [7], in [8], in data set [9] and in [10] was “no inhibitory activity” each time. Moreover, the inhibitory activity entry in data set [11] and in [12] was “no inhibitory activity” in each case. In [1], this molecule displayed a CC50 of 164 µM.

In the case of `CC(=O)C1=NNC(c2ccccc2)C12C(=O)N1[C@@H](C(=O)OC(c3ccccc3)c3ccccc3)C(C)(C)S[C@@H]12` (some centres unmarked) [BSS-974C], the CC50 in [1] worked out at 80.8 µM.

Turning to `CC(=O)C1N=NC(c2ccccc2)C12C(=O)N1[C@@H](C(=O)OC(c3ccccc3)c3ccccc3)C(C)(C)S[C@@H]12` (some centres unmarked) [BSS-974S], in data set [1], the CC50 is 91.9 µM.

Regarding `COC(=O)C1=C(C(=O)OC)[C@@]2(N=N1)C(=O)N1[C@@H](C(=O)O)C(C)(C)S[C@@H]12` [BSS-587, (2,3′R,5R)-4′,5′-bis(methoxycarbonyl)-3,3-dimethyl-7-oxo-4-thia-1-azaspiro[bicyclo[3.2.0]heptane-6,3′-pyrazole]-2-carboxylic acid], the inhibitory activity result in data set [5], in data set [6], in [7], in data set [8], in [9] and in data set [10] was “no inhibitory activity” throughout. Moreover, the inhibitory activity entry in [11] and in data set [12] was “no inhibitory activity” in each case. Further, the CC50 in data set [1] (Table 2, TZM-bl cells, 48 hours, alamarBlue) worked out at 136 µM.

As for `CCOC(=O)C1=NNC2(C1)C(=O)N1C(C(=O)O)C(C)(C)SC12` (centres unmarked) [BSS-597, Spiro[penicillanic-6,5′-(3-ethoxycarbonyl-2-pyrazoline)] acid], the inhibitory activity result in data set [5], in [6], in [7], in data set [8], in data set [9] and in data set [10] was “no inhibitory activity” throughout. The inhibitory activity entry in [11] and in [12] was “no inhibitory activity” in each case. Moreover, in data set [1], the CC50 was 152 µM.

For orientation: IC50 means the concentration needed to halve the response being measured. Lower therefore signals greater potency. Broadly, the IC90 is the concentration at which the effect reaches the 90% level. A higher IC90 goes with a need for much substance.

Values taken from US11666559B2, “Spiro-lactam compounds, process and uses thereof” (UNIVERSIDADE DE COIMBRA, priority 2017, dated 2023).
